# How the values were obtained:
# Experiment in all cases: Enzyme Assay
# PIK3CB (Human) = PIK3CB (Human) (UniProt P42338)
# PIK3CG (human) = PIK3CG (human) (UniProt P48736)
# PIK3CA (human) = PIK3CA (human) (UniProt P42336)
# PIK3CD (Human) = PIK3CD (Human) (UniProt O00329)
# Chain of PIK3CD (Human) (O00329 whole entry, looked up): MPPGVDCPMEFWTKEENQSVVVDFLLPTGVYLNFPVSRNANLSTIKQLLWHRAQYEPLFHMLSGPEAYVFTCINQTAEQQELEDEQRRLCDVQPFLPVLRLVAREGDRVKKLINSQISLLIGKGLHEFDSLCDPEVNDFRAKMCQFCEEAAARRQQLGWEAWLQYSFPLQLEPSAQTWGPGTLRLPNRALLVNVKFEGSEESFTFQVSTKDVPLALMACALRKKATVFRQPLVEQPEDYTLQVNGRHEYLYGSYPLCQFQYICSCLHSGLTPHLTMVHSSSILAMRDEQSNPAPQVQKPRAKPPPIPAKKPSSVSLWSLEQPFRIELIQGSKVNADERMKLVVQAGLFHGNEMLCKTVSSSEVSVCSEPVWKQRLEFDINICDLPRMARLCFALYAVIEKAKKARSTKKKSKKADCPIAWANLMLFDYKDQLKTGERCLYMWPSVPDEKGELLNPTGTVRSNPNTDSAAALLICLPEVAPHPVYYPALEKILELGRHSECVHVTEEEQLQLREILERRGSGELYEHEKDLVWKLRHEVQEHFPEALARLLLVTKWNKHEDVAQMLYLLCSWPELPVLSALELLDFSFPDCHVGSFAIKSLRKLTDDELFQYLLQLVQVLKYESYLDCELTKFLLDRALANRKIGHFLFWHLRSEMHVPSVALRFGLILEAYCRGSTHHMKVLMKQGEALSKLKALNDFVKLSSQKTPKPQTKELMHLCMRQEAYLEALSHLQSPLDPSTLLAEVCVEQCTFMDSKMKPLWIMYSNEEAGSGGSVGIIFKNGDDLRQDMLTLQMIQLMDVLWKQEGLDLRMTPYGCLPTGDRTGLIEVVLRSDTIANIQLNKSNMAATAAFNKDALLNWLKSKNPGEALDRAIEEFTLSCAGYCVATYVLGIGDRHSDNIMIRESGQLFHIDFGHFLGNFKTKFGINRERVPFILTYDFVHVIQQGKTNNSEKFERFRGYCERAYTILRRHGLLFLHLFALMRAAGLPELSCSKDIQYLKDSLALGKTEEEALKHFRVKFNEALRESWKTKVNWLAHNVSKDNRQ
# Chain of PIK3CA (human) (P42336 whole entry, looked up): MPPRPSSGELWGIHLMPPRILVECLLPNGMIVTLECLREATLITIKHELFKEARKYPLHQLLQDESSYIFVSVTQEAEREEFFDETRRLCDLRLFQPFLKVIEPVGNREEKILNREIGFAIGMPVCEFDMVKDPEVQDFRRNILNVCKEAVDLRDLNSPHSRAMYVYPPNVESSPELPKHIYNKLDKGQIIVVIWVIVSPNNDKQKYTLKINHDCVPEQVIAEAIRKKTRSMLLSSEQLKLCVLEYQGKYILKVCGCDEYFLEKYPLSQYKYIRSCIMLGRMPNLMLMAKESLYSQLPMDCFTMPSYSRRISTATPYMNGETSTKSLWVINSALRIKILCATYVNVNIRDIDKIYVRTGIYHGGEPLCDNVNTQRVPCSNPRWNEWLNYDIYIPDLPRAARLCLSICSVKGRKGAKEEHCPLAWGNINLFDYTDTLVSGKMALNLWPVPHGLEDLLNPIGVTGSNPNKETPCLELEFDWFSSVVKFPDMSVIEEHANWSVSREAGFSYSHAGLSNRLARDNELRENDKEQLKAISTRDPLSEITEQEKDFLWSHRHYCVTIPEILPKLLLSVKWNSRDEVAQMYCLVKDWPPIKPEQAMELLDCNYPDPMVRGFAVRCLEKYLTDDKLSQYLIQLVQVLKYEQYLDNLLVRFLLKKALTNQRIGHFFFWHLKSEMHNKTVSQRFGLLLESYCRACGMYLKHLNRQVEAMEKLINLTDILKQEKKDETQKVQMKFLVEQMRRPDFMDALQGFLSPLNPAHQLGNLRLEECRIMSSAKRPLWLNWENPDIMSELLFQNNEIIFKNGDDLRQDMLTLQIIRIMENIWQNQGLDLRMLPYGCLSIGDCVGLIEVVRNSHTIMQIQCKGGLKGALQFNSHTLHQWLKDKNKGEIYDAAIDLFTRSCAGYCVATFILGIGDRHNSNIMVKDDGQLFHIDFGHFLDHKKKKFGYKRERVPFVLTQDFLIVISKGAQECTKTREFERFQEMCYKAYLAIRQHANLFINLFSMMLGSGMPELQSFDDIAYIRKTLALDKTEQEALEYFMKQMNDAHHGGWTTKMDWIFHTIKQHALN
# Chain of PIK3CG (human) (P48736 whole entry, looked up): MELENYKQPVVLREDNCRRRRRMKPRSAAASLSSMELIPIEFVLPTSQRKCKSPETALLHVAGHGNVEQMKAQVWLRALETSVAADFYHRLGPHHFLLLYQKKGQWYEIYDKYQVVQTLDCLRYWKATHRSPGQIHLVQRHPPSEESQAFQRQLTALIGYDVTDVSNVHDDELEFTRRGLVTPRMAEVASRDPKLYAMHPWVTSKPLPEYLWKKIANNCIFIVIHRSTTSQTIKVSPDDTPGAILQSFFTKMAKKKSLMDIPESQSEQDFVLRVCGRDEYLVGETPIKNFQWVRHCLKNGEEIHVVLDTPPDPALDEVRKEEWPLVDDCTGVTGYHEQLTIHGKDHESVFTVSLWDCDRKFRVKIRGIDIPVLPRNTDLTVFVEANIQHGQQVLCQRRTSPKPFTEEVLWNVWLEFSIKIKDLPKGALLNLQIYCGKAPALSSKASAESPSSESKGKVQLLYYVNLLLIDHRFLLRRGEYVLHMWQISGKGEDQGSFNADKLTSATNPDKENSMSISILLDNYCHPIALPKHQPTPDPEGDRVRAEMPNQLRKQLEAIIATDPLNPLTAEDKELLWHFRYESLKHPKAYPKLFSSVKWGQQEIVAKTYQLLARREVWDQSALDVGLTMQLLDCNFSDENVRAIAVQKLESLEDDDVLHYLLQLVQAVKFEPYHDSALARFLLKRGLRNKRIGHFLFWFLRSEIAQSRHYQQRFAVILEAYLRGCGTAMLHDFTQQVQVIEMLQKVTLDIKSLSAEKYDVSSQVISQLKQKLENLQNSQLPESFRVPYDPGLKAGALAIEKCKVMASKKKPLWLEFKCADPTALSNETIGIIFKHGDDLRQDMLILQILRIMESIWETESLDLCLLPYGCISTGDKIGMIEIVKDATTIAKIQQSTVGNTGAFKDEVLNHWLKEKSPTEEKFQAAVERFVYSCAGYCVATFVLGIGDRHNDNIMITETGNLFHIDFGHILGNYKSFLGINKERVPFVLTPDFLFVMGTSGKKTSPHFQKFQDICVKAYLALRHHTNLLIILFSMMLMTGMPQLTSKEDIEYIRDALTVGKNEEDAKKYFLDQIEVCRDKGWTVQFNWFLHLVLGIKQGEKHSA
# Chain of PIK3CB (Human) (P42338 whole entry, looked up): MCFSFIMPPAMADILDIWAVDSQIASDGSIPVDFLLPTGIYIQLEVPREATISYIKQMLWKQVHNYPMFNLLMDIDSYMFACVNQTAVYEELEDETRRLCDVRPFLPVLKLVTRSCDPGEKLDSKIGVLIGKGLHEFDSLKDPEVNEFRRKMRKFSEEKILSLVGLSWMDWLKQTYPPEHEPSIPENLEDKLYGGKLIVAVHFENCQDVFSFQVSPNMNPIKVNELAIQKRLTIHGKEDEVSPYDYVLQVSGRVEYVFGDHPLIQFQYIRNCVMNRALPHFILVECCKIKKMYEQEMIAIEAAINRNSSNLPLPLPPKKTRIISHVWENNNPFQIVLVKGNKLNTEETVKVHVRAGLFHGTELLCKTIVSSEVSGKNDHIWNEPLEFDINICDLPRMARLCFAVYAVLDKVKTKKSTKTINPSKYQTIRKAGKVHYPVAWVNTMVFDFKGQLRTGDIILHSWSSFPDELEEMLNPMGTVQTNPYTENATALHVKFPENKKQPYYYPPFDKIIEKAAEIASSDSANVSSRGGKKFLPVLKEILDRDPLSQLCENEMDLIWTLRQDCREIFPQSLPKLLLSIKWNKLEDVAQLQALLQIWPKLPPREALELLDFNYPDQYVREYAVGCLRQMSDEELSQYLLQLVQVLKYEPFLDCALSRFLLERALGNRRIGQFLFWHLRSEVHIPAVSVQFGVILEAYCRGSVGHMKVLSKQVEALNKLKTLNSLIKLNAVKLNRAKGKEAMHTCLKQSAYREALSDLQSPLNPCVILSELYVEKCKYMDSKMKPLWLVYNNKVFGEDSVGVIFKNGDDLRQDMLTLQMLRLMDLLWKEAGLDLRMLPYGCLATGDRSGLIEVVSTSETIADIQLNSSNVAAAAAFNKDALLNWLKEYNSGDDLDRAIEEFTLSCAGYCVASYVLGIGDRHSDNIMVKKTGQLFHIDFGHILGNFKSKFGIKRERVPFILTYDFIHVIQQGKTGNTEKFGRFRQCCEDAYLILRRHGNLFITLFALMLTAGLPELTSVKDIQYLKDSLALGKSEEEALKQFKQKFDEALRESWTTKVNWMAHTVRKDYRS
SMILES,IC50 (PIK3CB (Human)),IC50 (PIK3CG (human)),IC50 (PIK3CA (human)),IC50 (PIK3CD (Human)),Ki (PIK3CD (Human))
Cc1cnc(-c2cc(-c3cccc4[nH]ccc34)cc3[nH]ncc23)s1,6.31 µM,3.98 µM,10 µM,0.251 µM,–
Cc1nc(C(=O)Nc2cc(-c3cnc(Cl)c(NS(C)(=O)=O)c3)cc3[nH]ncc23)cs1,1 µM,0.0501 µM,0.316 µM,0.002 µM,–
Cc1ccc(-c2cc(-c3cccc4[nH]ccc34)cc3[nH]ncc23)o1,2.51 µM,2 µM,5.01 µM,0.126 µM,–
CC(C)n1nccc1C(=O)Nc1cc(-c2cccc3[nH]ccc23)cc2[nH]ncc12,> 25.1 µM,20 µM,> 25.1 µM,1 µM,–
Cc1ccc(C(=O)Nc2cc(-c3cccc4[nH]ccc34)cc3[nH]ncc23)nc1,15.8 µM,1.26 µM,> 25.1 µM,0.126 µM,–
Cc1cc2c(-c3cc(NC(=O)c4csc(C)n4)c4cn[nH]c4c3)cccc2[nH]1,3.16 µM,3.16 µM,7.94 µM,0.02 µM,–
Cc1nc(C(=O)Nc2cc(-c3cnc(C)c(NS(C)(=O)=O)c3)cc3[nH]ncc23)cs1,3.98 µM,0.631 µM,3.16 µM,0.0316 µM,–
CN(C(=O)c1ccccn1)c1cc(-c2cccc3[nH]ccc23)cc2[nH]ncc12,> 25.1 µM,> 25.1 µM,> 25.1 µM,15.8 µM,–
O=C(Nc1cc(-c2cccc3[nH]ccc23)cc2[nH]ncc12)c1csc(-c2ccccc2)n1,12.6 µM,7.94 µM,> 25.1 µM,0.501 µM,–
O=C(Nc1cc(-c2cccc3[nH]ccc23)cc2[nH]ncc12)c1csc(CN2CCN3CCC[C@H]3C2)n1,7.94 µM,10 µM,7.94 µM,0.00398 µM,–
O=C(Nc1cc(-c2cccc3[nH]ccc23)cc2[nH]ncc12)c1cccc(CN2CCCCC2)n1,12.6 µM,> 25.1 µM,> 25.1 µM,0.0126 µM,–
O=C(Nc1cc(-c2cccc3[nH]ccc23)cc2[nH]ncc12)c1cscn1,12.6 µM,10 µM,> 25.1 µM,0.158 µM,–
Cc1nc(C(=O)Nc2cc(-c3cccc4[nH]ncc34)cc3[nH]ncc23)cs1,> 25.1 µM,6.31 µM,> 25.1 µM,0.316 µM,–
Cn1ccc(C(=O)Nc2cc(-c3cccc4[nH]ccc34)cc3[nH]ncc23)n1,12.6 µM,10 µM,> 25.1 µM,0.1 µM,–
Cc1ccc(-c2cc(-c3cccc4[nH]ccc34)cc3[nH]ncc23)s1,6.31 µM,3.98 µM,7.94 µM,0.794 µM,–
Cc1nc(C(=O)Nc2cc(-c3cccc(O)c3)cc3[nH]ncc23)cs1,7.94 µM,12.6 µM,15.8 µM,0.316 µM,–
O=C(Nc1cc(-c2cccc3[nH]ccc23)cc2[nH]ncc12)c1csc(CN2CCCCC2)n1,15.8 µM,15.8 µM,20 µM,0.01 µM,–
COc1ncc(-c2cc(NC(=O)c3csc(CN4C[C@@H](C)O[C@@H](C)C4)n3)c3cn[nH]c3c2)cc1NS(C)(=O)=O,2.51 µM,0.316 µM,0.398 µM,> 25.1 µM,0.0001 µM
Cc1coc(-c2cc(-c3cccc4[nH]ccc34)cc3[nH]ncc23)n1,0.794 µM,0.631 µM,12.6 µM,0.126 µM,–
C[C@@H]1CN(Cc2nnc(-c3cc(-c4cccc5[nH]ccc45)cc4[nH]ncc34)o2)C[C@H](C)O1,1 µM,2 µM,> 25.1 µM,0.00316 µM,–
CC(C)N1CCN(Cc2nnc(-c3cc(-c4cccc5[nH]ccc45)cc4[nH]ncc34)o2)CC1,3.16 µM,10 µM,12.6 µM,0.00126 µM,–
CC(C)N1CCN(Cc2nc(C(=O)Nc3cc(-c4cccc5[nH]ccc45)cc4[nH]ncc34)cs2)CC1,1.58 µM,3.98 µM,1.26 µM,0.00316 µM,–
Cc1nc(C(=O)Nc2cc(-c3ccnc4[nH]ccc34)cc3[nH]ncc23)cs1,5.01 µM,0.251 µM,7.94 µM,0.00794 µM,–
CC(C)N1CCN(Cc2cnc(-c3cc(-c4cccc5[nH]ccc45)cc4[nH]ncc34)o2)CC1,1.58 µM,6.31 µM,5.01 µM,> 25.1 µM,0.000126 µM
Cc1nnc(-c2cc(-c3cccc4[nH]ccc34)cc3[nH]ncc23)o1,3.16 µM,1.26 µM,> 25.1 µM,0.1 µM,–
COc1ncc(-c2cc(NC(=O)c3csc(C)n3)c3cn[nH]c3c2)cc1NS(C)(=O)=O,0.794 µM,0.2 µM,0.794 µM,0.0126 µM,–

SMILES,IC50 (PIK3CB (Human)),IC50 (PIK3CG (human)),IC50 (PIK3CA (human)),IC50 (PIK3CD (Human)),Ki (PIK3CD (Human))
Cc1nc(C(=O)Nc2cc(-c3cccc4[nH]ccc34)cc3[nH]ncc23)cs1,10 µM,3.98 µM,> 25.1 µM,0.0501 µM,–
COc1cc(-c2cc(NC(=O)c3csc(C)n3)c3cn[nH]c3c2)c2cc[nH]c2c1,2.51 µM,7.94 µM,6.31 µM,0.0126 µM,–
Cc1nc(C(=O)Nc2cc(-c3ccc(Cl)c(NS(C)(=O)=O)c3)cc3[nH]ncc23)cs1,15.8 µM,3.98 µM,15.8 µM,0.631 µM,–
Cc1csc(-c2cc(-c3cccc4[nH]ccc34)cc3[nH]ncc23)n1,6.31 µM,2.51 µM,> 25.1 µM,0.398 µM,–
C[C@@H]1CN(Cc2cnc(-c3cc(-c4cccc5[nH]ccc45)cc4[nH]ncc34)o2)C[C@H](C)O1,1 µM,2 µM,15.8 µM,0.00251 µM,–
Cc1nc(C(=O)Nc2cc(-c3cncc(NS(C)(=O)=O)c3)cc3[nH]ncc23)cs1,> 25.1 µM,0.316 µM,7.94 µM,0.0794 µM,–
O=C(Nc1cc(-c2cccc3[nH]ccc23)cc2[nH]ncc12)c1ccccn1,6.31 µM,6.31 µM,10 µM,0.1 µM,0.0501 µM
O=C(Nc1cc(-c2cccc3[nH]ccc23)cc2[nH]ncc12)c1ccccc1,20 µM,12.6 µM,> 25.1 µM,1.26 µM,–
Cc1nc(C(=O)Nc2cc(-c3cc(Cl)cc4[nH]ccc34)cc3[nH]ncc23)cs1,1 µM,3.98 µM,5.01 µM,0.00794 µM,–
Cc1nc(C(=O)Nc2cc(-c3cc(F)cc4[nH]ccc34)cc3[nH]ncc23)cs1,3.16 µM,3.16 µM,12.6 µM,0.0158 µM,–
CC(C)N1CCN(Cc2coc(-c3cc(-c4cccc5[nH]ccc45)cc4[nH]ncc34)n2)CC1,3.98 µM,15.8 µM,12.6 µM,0.00398 µM,–
O=C(Nc1cc(-c2cccc3[nH]ccc23)cc2[nH]ncc12)c1csc(CN2CCOCC2)n1,7.94 µM,3.16 µM,10 µM,0.00631 µM,–
Cc1nc(C(=O)Nc2cc(-c3cnc(Cl)c(CS(=O)(=O)c4ccccc4)c3)cc3[nH]ncc23)cs1,20 µM,> 25.1 µM,25.1 µM,1 µM,–
Cc1nc(C(=O)Nc2cc(-c3cccc4[nH]cnc34)cc3[nH]ncc23)cs1,> 25.1 µM,> 25.1 µM,> 25.1 µM,0.316 µM,–
COc1ncc(-c2cc(-c3ncc(CN4C[C@@H](C)O[C@@H](C)C4)o3)c3cn[nH]c3c2)cc1NS(C)(=O)=O,0.631 µM,0.501 µM,0.501 µM,–,–
C[C@@H]1CN(Cc2coc(-c3cc(-c4cccc5[nH]ccc45)cc4[nH]ncc34)n2)C[C@H](C)O1,1.26 µM,2.51 µM,12.6 µM,0.00501 µM,–
Cc1cnc(-c2cc(-c3cccc4[nH]ccc34)cc3[nH]ncc23)o1,1.26 µM,0.398 µM,10 µM,0.0631 µM,–
c1cc(-c2cc(-c3ncco3)c3cn[nH]c3c2)c2cc[nH]c2c1,1.26 µM,1.26 µM,10 µM,0.0794 µM,–
Cc1nc(C(=O)Nc2cc(-c3cnc(Cl)c(N(C)S(=O)(=O)c4ccccc4)c3)cc3[nH]ncc23)cs1,> 25.1 µM,> 25.1 µM,> 25.1 µM,0.501 µM,–
Cc1cccc(C(=O)Nc2cc(-c3cccc4[nH]ccc34)cc3[nH]ncc23)n1,3.16 µM,0.794 µM,20 µM,0.0158 µM,–
O=C(Nc1cc(-c2cccc3[nH]ccc23)cc2[nH]ncc12)c1csc(Cc2ccccc2)n1,> 25.1 µM,12.6 µM,> 25.1 µM,0.0794 µM,–
Cn1nccc1C(=O)Nc1cc(-c2cccc3[nH]ccc23)cc2[nH]ncc12,20 µM,20 µM,> 25.1 µM,0.794 µM,–
Cc1nc(C(=O)Nc2cc(-c3cccc4c3ccn4C)cc3[nH]ncc23)cs1,> 25.1 µM,> 25.1 µM,> 25.1 µM,5.01 µM,–
C[C@@H]1CN(Cc2nc(C(=O)Nc3cc(-c4cccc5[nH]ccc45)cc4[nH]ncc34)cs2)C[C@H](C)O1,5.01 µM,2.51 µM,12.6 µM,0.002 µM,–
Cc1nc(C(=O)Nc2cc(-c3cnc(Cl)c(NS(=O)(=O)c4ccccc4)c3)cc3[nH]ncc23)cs1,0.501 µM,0.0251 µM,0.2 µM,0.00126 µM,–
